The nature of data set [1]: Parallel artificial membrane permeability assay (PAMPA). As to conditions: for Papp: PAMPA; for PAMPA_R1 / PAMPA_R3: PAMPA Papp; for PAMPA_R1: replicate 1; for PAMPA_R3: replicate 3. In general terms: PAMPA measures passive passage across an artificial lipid membrane.
The subject of the next data set is Caco-2 cells. Briefly: Caco-2 permeability assay (apical to basolateral). It counts as in vitro ADME, human. To be noted: Caco-2. The method in brief: (§1)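 Apical-to-basolateral flux was determined by LC-MS of both compartments after 90 min at 37°C on an orbital shaker, with 50 μM peptide on the apical side and HBSS below. Monolayers were grown for 6 days in an accelerated Caco-2 Transwell format and verified by TEER before and after the run.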
For orientation: Caco-2 monolayers are a common model of the intestinal barrier.

Data set [2] in a line: Caco-2 permeability assay (apical to basolateral). It counts as in vitro ADME, human. The method in brief:
as §1

The next data set in a line: in vitro. As to conditions: PAMPA, PAMPA_Papp_Avg.
For data set [3] the following is noted: PAMPA.
The conditions of data set [4]: PAMPA, apparent permeability (Papp) in PAMPA.
The mark [5] stands for this setting: BQL: No significant peak detected for the peptide in the acceptor wells.
Where [6] appears, read: average of 3 replicates, BQL: No significant peak detected for the peptide in the acceptor wells.
[7] abbreviates: BQL = no significant peak detected for the peptide in the acceptor wells.

Like-named read-outs stand apart in the source and are kept apart here. Where a SMILES comes first, the peptide text is derived from it. [ ]: non-standard residue; d: D form. NMeF = CN[C@@H](Cc1ccccc1)C(=O)O; dNMeF = CN[C@H](Cc1ccccc1)C(=O)O; NMeL = CN[C@@H](CC(C)C)C(=O)O; dNMeL = CN[C@H](CC(C)C)C(=O)O; dNMeV = CN[C@@H](C(=O)O)C(C)C; dNMeA = CN[C@H](C)C(=O)O

For orientation: Papp means a coefficient for how fast a substance crosses the barrier. Broadly, the Papp A→B is the apparent permeability from the apical to the basolateral side of a cell layer. A low value points to slow passage.

For `CC(C)C[C@@H]1NC(=O)[C@H](CC(C)C)N(C)C(=O)[C@H]2CCCN2C(=O)[C@H]2CCCN2C(=O)[C@H](CC(C)C)NC(=O)[C@@H](CC(C)C)N(C)C(=O)[C@@H](C)NC(=O)[C@@H](CC(C)C)N(C)C(=O)[C@H]2CCCN2C(=O)[C@@H](CC(C)C)NC(=O)[C@@H](C)N(C)C1=O` [Design D11.15, LEU DPRO DPRO *LEU LEU *DALA DLEU DPRO *DLEU DALA *DLEU] (cyclo(L[dNMeA][dL][dP][dNMeL][dA][dNMeL]L[dP][dP][NMeL])), the Papp in data set [1] came out at 1.29 ×10⁻⁶ cm/s. Further, in data set [1] (setting [5]), the PAMPA_R1 was determined as 9.49E-07 and the PAMPA_R3 worked out at 1.56E-06.

Take `CC[C@@H](C)[C@H]1NC(=O)[C@@H](C)N(C)C(=O)[C@H](CC(C)C)NC(=O)[C@@H](CC(C)C)NC(=O)[C@H]2CCCN2C(=O)[C@H](CC(C)C)N(C)C(=O)[C@@H](C(C)C)NC(=O)[C@@H](CC(C)C)N(C)C(=O)[C@H](C(C)C)NC(=O)[C@@H](C(C)C)NC(=O)[C@@H]2CCCN2C(=O)[C@H]2CCCN2C1=O` [Design D12.10, *LEU DPRO DLEU LEU *DALA DILE DPRO PRO DVAL VAL *DLEU DVAL] (cyclo([dV]V[dNMeL][dV][NMeL][dP][dL]L[dNMeA][dI][dP]P)): in data set [1] (setting [5]), the PAMPA_R1 result is “BQL” and the PAMPA_R3 entry is listed as “BQL”. The PAMPA_Papp_Avg result in data set [1] (setting [6]) was “BQL”.

Turning to `CC[C@@H](C)[C@H]1NC(=O)[C@H]2CCCN2C(=O)[C@H]([C@@H](C)CC)NC(=O)[C@@H]2CCCN2C(=O)[C@H]2CCCN2C(=O)[C@@H](CC(C)C)NC(=O)[C@H](CC(C)C)NC(=O)[C@H](C(C)C)NC(=O)[C@H](CC(C)C)NC(=O)[C@H](C)NC(=O)[C@H](C)NC(=O)[C@@H]2CCCN2C1=O` [Design D12.1, PRO ILE DPRO DILE PRO ALA ALA LEU VAL LEU DLEU DPRO] (cyclo(I[dP][dI]PAALVL[dL][dP]P)), in data set [1] (setting [5]), the PAMPA_R1 result was “BQL” and the PAMPA_R3 entry is given as “BQL”. Also, the PAMPA_Papp_Avg result in data set [1] (setting [6]) was “BQL”.

For `CC[C@H](C)[C@@H]1NC(=O)[C@H](Cc2ccccc2)N(C)C(=O)[C@H]2CCCN2C(=O)[C@H]([C@@H](C)CC)NC(=O)[C@@H](C)N(C)C(=O)[C@@H](C)NC(=O)[C@@H]2CCCN2C(=O)[C@H]2CCCN2C(=O)[C@H](CC(C)C)NC(=O)[C@@H](CC(C)C)NC(=O)[C@H](CC(C)C)NC(=O)[C@H]2CCCN2C1=O` [Design D12.6, DPRO *PHE ILE DPRO LEU DLEU LEU DPRO PRO DALA *DALA ILE] (cyclo([dA][dNMeA]I[dP][NMeF]I[dP]L[dL]L[dP]P)), in the data set with Caco-2 cells, the Caco_R1 is given as 2.06 and the Caco_R3 stood at 4.18. In data set [2] (Caco-2, Caco_Papp_Average), this compound yielded a Papp A→B of 2.84 ×10⁻⁶ cm/s. In addition, in data set [2] (human, Caco-2), the Papp at 90 min, 50 µM amounted to 2.84 ×10⁻⁶ cm/s. The same compound showed a Papp in the data set “in vitro” of 1.47 ×10⁻⁶ cm/s. In data set [3], this compound had a PAMPA_R1 of 2.43E-06 and a PAMPA_R3 of 1.22E-06. In addition, in data set [4], the apparent permeability (Papp) was 1.47 ×10⁻⁶ cm/s.

For the compound `CC[C@@H](C)[C@H]1NC(=O)[C@@H]2CCCN2C(=O)[C@@H](Cc2ccccc2)N(C)C(=O)[C@@H](CC(C)C)N(C)C(=O)[C@@H](C(C)C)NC(=O)[C@@H](CC(C)C)N(C)C(=O)[C@H](Cc2ccccc2)N(C)C(=O)[C@H](C(C)C)NC(=O)[C@H]2CCCN2C1=O` [Design D9.7, VAL *PHE *DLEU DVAL *DLEU *DPHE PRO DILE DPRO] (cyclo([NMeF][dNMeL][dV][dNMeL][dNMeF]P[dI][dP]V)), in data set [1] (setting [7]), the PAMPA_R1 result is on record as “BQL” and the PAMPA_R3 result is reported as “BQL”. The PAMPA_Papp_Avg result in data set [1] (average of replicates R1-R3, BQL = no significant peak detected for the peptide in the acceptor wells) is given as “BQL”.

For the compound `CC[C@@H](C)[C@H]1NC(=O)[C@@H](CC(C)C)N(C)C(=O)[C@@H]2CCCN2C(=O)[C@H](C(C)C)NC(=O)[C@@H](C)N(C)C(=O)[C@@H]2CCCN2C(=O)[C@@H](CC(C)C)NC(=O)[C@@H](C(C)C)N(C)C(=O)[C@@H]2CCCN2C(=O)[C@H](C)NC(=O)[C@H](C(C)C)NC(=O)[C@@H]2CCCN2C1=O` [Design D12.5, VAL PRO *DLEU DILE PRO VAL ALA PRO *DVAL DLEU PRO *DALA] (cyclo(AP[dNMeV][dL]P[dNMeA]VP[dNMeL][dI]PV)), in data set [1], the Papp turned out to be 0.1 ×10⁻⁶ cm/s. Moreover, in data set [1] (setting [5]), the PAMPA_R1 was 1.24E-07 and the PAMPA_R3 came out at 1.52E-07.

The record behind these values is paper PMC9490236, “Accurate de novo design of membrane-traversing macrocycles” (Cell, 2022).
